Measured values taken from patent US11440923B2, “Substituted macrocyclic indole derivatives” (Bayer Aktiengesellschaft, priority 2017, dated 2022).
Where a name gives a salt, the structure may show the parent alone.

target: MCL-1 (Homo sapiens (Human), UniProt Q07820, K194A/K197A/R201A); experiment: Protein-compound interaction assay (SPR assay, Assay 9); type: binding; settings: KD (geometric mean), SPR, 25° C.
From the text: Assay 9 Protein-Compound Interaction Assay (SPR Assay)
The ability of the compounds described in this invention to bind to MCL-1 may be determined using surface plasmon resonance (SPR). This allows for the quantification of binding in terms of the equilibrium dissociation constant (KD [M]), as well as association and dissociation rate constants (kon [1/Ms] and koff [1/s], respectively). The measurements may be performed using Biacore® T200 or Biacore® S200 instruments (GE Healthcare).
Briefly, carboxymethylated dextran biosensor chips (Series S Sensor Chip CMS, GE Healthcare) were activated with 1-ethyl-3-(3-dimethylaminopropyl)-carbodiimide hydrochloride (EDC) and N-hydroxysuccinimide (NHS) according to the supplier's instructions. MBP-MCL-1 was diluted in 1×PBS-P+ (GE Healthcare) and injected on the activated chip surface. Subsequently, a solution of 1 M ethanolamine-HCl (GE Healthcare) was injected to block unreacted groups, resulting in approximately 400-2500 response units (RU) of immobilized protein. A reference surface was generated by treatment with NHS-EDC and ethanolamine-HCl. […] Compounds were injected for 60 s followed by a dissociation time of up to 1000 s.
The double-referenced sensorgrams were fit to a simple reversible Langmuir 1:1 reaction mechanism as implemented in the Biacore® T200 and S200 evaluation software (T200 evaluation software version 2.0 and S200 evaluation software version 1.0, GE Healthcare).

Chain of MCL-1 (Q07820 whole entry K194A/K197A/R201A, looked up): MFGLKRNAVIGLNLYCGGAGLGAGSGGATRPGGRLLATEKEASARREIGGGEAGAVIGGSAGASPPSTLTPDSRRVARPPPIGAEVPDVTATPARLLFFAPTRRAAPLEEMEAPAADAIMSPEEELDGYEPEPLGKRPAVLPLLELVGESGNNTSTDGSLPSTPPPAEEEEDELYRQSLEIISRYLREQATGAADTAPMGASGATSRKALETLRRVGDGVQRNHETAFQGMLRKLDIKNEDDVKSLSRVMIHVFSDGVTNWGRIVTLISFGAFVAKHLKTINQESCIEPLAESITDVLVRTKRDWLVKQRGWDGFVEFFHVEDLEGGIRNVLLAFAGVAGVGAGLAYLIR

SMILES | Kd
CCc1c2c(nn1C)C(CCC1CCOCC1)OCCCCn1c(C(=O)O)c(CCCOc3cccc4cc(F)ccc34)c3ccc(Cl)c-2c31 (single isomer, unassigned; enantiomer 1) [Example 61, 4-chloro-3-ethyl-7-{3-[(6-fluoronaphthalen-1-yl)oxy]propyl}-2-methyl-15-[2-(oxan-4-yl)ethyl]-2,10,11,12,13,15-hexahydropyrazolo[4′,3′:9,10][1,6]oxazacycloundecino[8,7,6-hi]indole-8-carboxylic Acid (Enantiomer 1)] | 1.3 nM

same assay, conditions: read-out: koff (geometric mean), SPR, 25° C.

SMILES | koff
CCc1c2c(nn1C)C(CCC1CCOCC1)OCCCCn1c(C(=O)O)c(CCCOc3cccc4cc(F)ccc34)c3ccc(Cl)c-2c31 (single isomer, unassigned; enantiomer 1) [Example 61, 4-chloro-3-ethyl-7-{3-[(6-fluoronaphthalen-1-yl)oxy]propyl}-2-methyl-15-[2-(oxan-4-yl)ethyl]-2,10,11,12,13,15-hexahydropyrazolo[4′,3′:9,10][1,6]oxazacycloundecino[8,7,6-hi]indole-8-carboxylic Acid (Enantiomer 1)] | 0.0021 s⁻¹

same assay, conditions: read-out: kon (geometric mean), SPR, 25° C.

SMILES | kon
CCc1c2c(nn1C)C(CCC1CCOCC1)OCCCCn1c(C(=O)O)c(CCCOc3cccc4cc(F)ccc34)c3ccc(Cl)c-2c31 (single isomer, unassigned; enantiomer 1) [Example 61, 4-chloro-3-ethyl-7-{3-[(6-fluoronaphthalen-1-yl)oxy]propyl}-2-methyl-15-[2-(oxan-4-yl)ethyl]-2,10,11,12,13,15-hexahydropyrazolo[4′,3′:9,10][1,6]oxazacycloundecino[8,7,6-hi]indole-8-carboxylic Acid (Enantiomer 1)] | 1.6e+06 M⁻¹ s⁻¹

target: MCL1 protein / biotinylated BIM BH3 peptide in RKO cells (Homo sapiens (Human), UniProt Q07820); experiment: PIxEL: protein-protein interaction in permeabilized cells by ELISA (Assay 5); type: cell-based; settings: PIxEL IC50 (median)
Sequence (Q07820 whole entry): as the sequence (Q07820 whole entry K194A/K197A/R201A, looked up) above, with A194K, A197K, A201R counted along it
Procedure: PIxEL: Protein-Protein Interaction in Permeabilized Cells by ELISA
Most MCL1 protein molecules are localized at the mitochondria outer membrane and sequester pro-apoptotic proteins through binding of their BCL2 homology domain 3 (BH3 domain). MEB buffer (150 mM mannitol, 10 mM HEPES pH 7.5, 50 mM KCl, 20 μM EDTA, 20 μM EGTA, 5 mM potassium succinate, 0.1% protease-free BSA (SIGMA) with low dose digitonin (0.002%) permeabilizes plasma membrane while leaves live mitochondria, where MCL1 maintains its native localization and conformation. Unlike biophysical assays (e.g. TR-FRET) that use truncated recombinant MCL1 protein, this assay uses full length endogenous MCL1 protein at mitochondria outer membrane. It measures the interaction between MCL1 protein and biotinylated BIM BH3 peptide. Compounds can compete with BIM BH3 peptide to bind to MCL1 protein.
On day 1, RKO colon cancer cell line cells were plated at 0.8 million cells/ml, 100 μl/well in 96-well flat bottom TC plates (Corning). MCL1 antibody (Santa Cruz sc-12756) were diluted at 200 fold (final concentration 1 μg/ml) in carbonate buffer (Thermo Fisher Scientific, pH 9.6), and 50 μl of diluted antibody was added to each well of high bind ELISA plates ([…]). Each plate was tapped to make sure liquid covering entire bottom of wells and incubate at 37° C. overnight.
On the second day, MCL1 antibody was washed from ELISA plate. 250 μl Odyssey® Blocking Buffer (PBS) (Li-Cor) was added to each well, incubated at room temperature for at least 1 hour, then washed once with 250 μl 1×PBST. Plates with RKO cells were gently washed once with 100 μl/well PBS, once with 100 μl/well MEB buffer without digitonin, then 100 μl of MEB buffer with 0.002% digitonin was gently added to each well. Compounds were added with HP Tecan compound dispenser in 3-fold dilution series, highest dose 30 μM, 10-dose per compound in quadruplicates. Biotin-BIM peptide (synthesized by 21st Century) was added with HP Tecan compound dispenser at 0.2 μM immediately after the addition of compounds. Plates were rocked for 1 hour at room temperature. Then MEB buffer was aspirated and 50 μl of CHAPS buffer (50 mM Tris-Cl, pH 7.4, 150 mM NaCl, 1% CHAPS, 1 mM EDTA, 1 mM EGTA, cOmplete protease inhibitors (Roche), PhosSTOP (Roche)) was added to each well. Plates were rocked for 1 hour at 4° C., then 45 μl cell lysate from each well were transferred to ELISA plates coated with MCL1 antibody. Plates were incubated overnight in the cold room with rocking.
On the third day, ELISA plates were washed once with 250 μl 1×PBST. Streptavidin-poly-HRP (Thermo Fisher Scientific) was diluted to 20 ng/ml in Odyssey blocking buffer plus 0.05% Triton-100, and 100 μl was added to each well of the ELISA plate. Plates were incubated at room temperature for 1 hour with rocking, then washed with 100 μl 1×PBST for 3 times. Each SuperSignal ELISA Femto Maximum Sensitivity substrate was added to a 50-ml tube and mixed, then 100 μl of mixed substrate was added to each well. Plates were shaken for 1 minute then luminescence was measured by Envision plate reader […]. Signal of each well were normalized by no-compound control and no-cell control. IC50 was calculated using Graphic Pad PRISM software.

SMILES | IC50
CCc1c2c(nn1C)C(CCN1CCOCC1)OCCCCn1c(C(=O)O)c(CCCOc3cccc4cc(F)ccc34)c3ccc(F)c-2c31 (single isomer, unassigned; enantiomer 2) [Example 51, (−)-3-ethyl-4-fluoro-7-{3-[(6-fluoronaphthalen-1-yl)oxy]propyl}-2-methyl-15-[2-(morpholin-4-yl)ethyl]-2,10,11,12,13,15-hexahydropyrazolo[4′,3′:9,10][1,6]oxazacycloundecino[8,7,6-hi]indole-8-carboxylic Acid (Enantiomer 2)] | 12000 nM
CCc1c2c(nn1C)C(CC(C)(C)O)OCCCCn1c(C(=O)O)c(CCCOc3cccc4cc(F)ccc34)c3ccc(Cl)c-2c31 (single isomer, unassigned; enantiomer 1) [Example 53, (+)-4-chloro-3-ethyl-7-{3-[(6-fluoronaphthalen-1-yl)oxy]propyl}-15-(2-hydroxy-2-methylpropyl)-2-methyl-2,10,11,12,13,15-hexahydropyrazolo[4′,3′:9,10][1,6]oxazacycloundecino[8,7,6-hi]indole-8-carboxylic Acid—N-ethylethanamine Salt (Enantiomer 1)] | 135 nM
CCc1c2c(nn1C)C(c1ccccc1)OCCCCn1c(C(=O)O)c(CCCOc3cccc4cc(F)ccc34)c3ccc(Cl)c-2c31 (racemic) [Example 59, (rac)-4-chloro-3-ethyl-7-{3-[(6-fluoronaphthalen-1-yl)oxy]propyl}-2-methyl-(15-rac)-phenyl-2,10,11,12,13,15-hexahydropyrazolo[4′,3′:9,10][1,6]oxazacycloundecino[8,7,6-hi]indole-8-carboxylic Acid] | 190 nM
CCc1c2c(nn1C)C(C(F)(F)F)OCCCCn1c(C(=O)O)c(CCCOc3cccc4ccccc34)c3ccc(Cl)c-2c31 (single isomer, unassigned; enantiomer 1) [Example 33, (+)-4-chloro-3-ethyl-2-methyl-7-{3-[(naphthalen-1-yl)oxy]propyl}-15-(trifluoromethyl)-2,10,11,12,13,15-hexahydropyrazolo[4′,3′:9,10][1,6]oxazacycloundecino[8,7,6-hi]indole-8-carboxylic Acid—N-ethylethanamine Salt (Enantiomer 1)] | 1510 nM
Cc1c2c(nn1C)C(CCN1CCOCC1)OCCCCn1c(C(=O)O)c(CCCOc3cccc4cc(F)ccc34)c3ccc(Cl)c-2c31 (single isomer, unassigned; enantiomer 2) [Example 18, 4-chloro-7-{3-[(6-fluoronaphthalen-1-yl)oxy]propyl}-2,3-dimethyl-15-[2-(morpholin-4-yl)ethyl]-2,10,11,12,13,15-hexahydropyrazolo[4′,3′:9,10][1,6]oxazacycloundecino[8,7,6-hi]indole-8-carboxylic Acid (Enantiomer 2)] | 2430 nM
CCc1c2c(nn1C)C(C1CC1)OCCCCn1c(C(=O)O)c(CCCOc3cccc4cc(F)ccc34)c3ccc(Cl)c-2c31 (single isomer, unassigned; enantiomer 1) [Example 39, (+)-4-chloro-15-cyclopropyl-3-ethyl-7-{3-[(6-fluoronaphthalen-1-yl)oxy]propyl}-2-methyl-2,10,11,12,13,15-hexahydropyrazolo[4′,3′:9,10][1,6]oxazacycloundecino[8,7,6-hi]indole-8-carboxylic Acid—N-ethylethanamine Salt (Enantiomer 1)] | 317 nM
Cc1c2c(nn1C)C(C1CC1)OCCCCn1c(C(=O)O)c(CCCOc3cccc4ccccc34)c3ccc(Cl)c-2c31 (single isomer, unassigned; enantiomer 1) [Example 35, (+)-4-chloro-15-cyclopropyl-2,3-dimethyl-7-{3-[(naphthalen-1-yl)oxy]propyl}-2,10,11,12,13,15-hexahydropyrazolo[4′,3′:9,10][1,6]oxazacycloundecino[8,7,6-hi]indole-8-carboxylic Acid N-ethylethanamine Salt (Enantiomer 1)] | 1640 nM
Cc1c2c(nn1C)C(CCO)OCCCCn1c(C(=O)O)c(CCCOc3cccc4ccccc34)c3ccc(Cl)c-2c31 (racemic) [Example 26, (rac)-4-chloro-15-(2-hydroxyethyl)-2,3-dimethyl-7-{3-[(naphthalen-1-yl)oxy]propyl}-2,10,11,12,13,15-hexahydropyrazolo[4′,3′:9,10][1,6]oxazacycloundecino[8,7,6-hi]indole-8-carboxylic Acid] | 1250 nM
Cc1c2c(nn1C)C(C1CC1)OCCCCn1c(C(=O)O)c(CCCOc3cccc4ccccc34)c3ccc(Cl)c-2c31 (racemic) [Example 28, (rac)-4-Chloro-15-cyclopropyl-2,3-dimethyl-7-{3-[(naphthalen-1-yl)oxy]propyl}-2,10,11,12,13,15-hexahydropyrazolo[4′,3′:9,10][1,6]oxazacycloundecino[8,7,6-hi]indole-8-carboxylic Acid] | 2330 nM
CCc1c2c(nn1C)C1CCCCN1CCCCn1c(C(=O)O)c(CCCOc3cccc4ccccc34)c3ccc(Cl)c-2c31 (racemic) [Example 102, (rac)-18-chloro-1-ethyl-2-methyl-15-[3-(1-naphthyloxy)propyl]-2,3b,4,5,6,7,9,10,11,12-decahydropyrazolo[3′,4′:8,9]pyrido[1′,2′:6,7][1,6]diazacycloundecino[10,11,1-hi]indole-14-carboxylic Acid] | 59.9 nM
CCc1c2c(nn1C)C(C(F)(F)F)OCCCCn1c(C(=O)O)c(CCCOc3cccc4ccccc34)c3ccc(Cl)c-2c31 (racemic) [Example 27, (rac)-4-Chloro-3-ethyl-2-methyl-7-{3-[(naphthalen-1-yl)oxy]propyl}-15-(trifluoromethyl)-2,10,11,12,13,15-hexahydropyrazolo[4′,3′:9,10][1,6]oxazacycloundecino[8,7,6-hi]indole-8-carboxylic Acid] | 1960 nM
CCc1c2c(nn1C)C1CCCN1CCCCn1c(C(=O)O)c(CCCOc3cccc4cc(F)ccc34)c3ccc(Cl)c-2c31 (single isomer, unassigned; (+)) [Example 105, (+)-17-chloro-1-ethyl-14-{3-[(6-fluoronaphthalen-1-yl)oxy]propyl}-2-methyl-3b,4,5,6,8,9,10,11-octahydro-2H-pyrazolo[3′,4′:8,9]pyrrolo[1′,2′:6,7][1,6]diazacycloundecino[10,11,1-hi]indole-13-carboxylic Acid] | 63 nM
